We go through four compounds from PMC10302146, “Dual Anta-Inhibitors Targeting Protein Kinase CK1δ and A2A Adenosine Receptor Useful in Neurodegenerative Disorders” (Molecules, 2023).

Some results are limits rather than exact numbers.

For one data set, the target named is human recombinant A2AAR. The arrangement: method as in PMID 37259317. The following applies: cited from earlier work; for Ki: [3H]NECA, membranes from CHO cells stably transfected, means ± standard errors, read-out: KiA2A.
Another data set addresses human recombinant A1AR. Also noted: method as in PMID 37259317. The following applies: [3H]CCPA, membranes from CHO cells stably transfected; means ± standard errors; read-out: KiA1; cited from earlier work.
The next data set has as its system CK1δ. Also noted: method as in PMID 37259317. The following applies: cited from earlier work; for IC50: enzymatic inhibition.
Data set [1] deals with N13 microglial cells. The experiment in a line: N13 cell viability, CK cocktail 48 h pretreatment then ligand (A2AAR antagonist protocol). The following applies: 60 min. Here is the method:
Given the nature of compounds, dual A2A/CK1δ anta-inhibitors, their neuroprotective effect against a neuroinflammatory insult was investigated following two different approaches aimed at studying the antagonist activity on the A2AAR and the inhibitor effect on CK1δ. […] The concentrations used were 35, 65, and 400 µM at 60 min of incubation.
N13 cells were plated in 96-well plates at the confluence of 1 × 10^4 cells/well and incubated overnight. Cells were divided into two groups in order to study the activity of compounds on A2AAR and CK1δ (Scheme 1). […] Cells of the second group were pretreated with 2 µL at different concentrations of understudy ligand, or the reference compound PF670462, for 30 or 60 min and then with further addition of a proinflammatory cocktail of cytokines for 48 h (Scheme 1). After treatment, 20 µL of CellTiter 96® AQueous One Solution Reagent was added to each well to a final volume of 100 µL. After 1 h of incubation, absorbance was measured at 492 nm in the microplate reader GENiosPro. Cell viability was estimated as the relation between the OD of treated cells and the OD of untreated cells in percentage. An untreated control and a control with the solvent were run. Experiments were performed in triplicate.

In the next data set the target is human recombinant A3AR. The arrangement: method as in PMID 37259317. The following applies: [3H]HEMADO, membranes from CHO cells stably transfected; means ± standard errors; read-out: KiA3; cited from earlier work.
Data set [2] relates to N13 microglial cells. The experiment in a line: N13 cell viability, ligand pretreatment 60 min then CK cocktail 48 h (CK1δ inhibition protocol). The data set is classed as cell-based. The following applies: for cell vitality: CK cocktail alone 69% ± 0.3 vs. control.
Data set [3] has as its system N13 microglial cells. The experiment in a line: N13 cell viability (CellTiter 96 AQueous One, MTS), ligands alone. Type of data set: cell-based. The following applies: for cell viability: 60 min, alone. Here is the method: Starting from these observations, since this double effect could be a suitable strategy for the treatment of chronic neurodegenerative diseases, in which neuroinflammation plays a crucial role, these compounds were tested on an in vitro model of neuroinflammation in comparison with the reference compounds. The experiments were performed using N13 microglial cells. The colorimetric method CellTiter 96® AQueous One Solution Cell Proliferation assay was used to determine the number of live cells in cytotoxicity or proliferation assays. The tetrazole compound MTS was bio-reduced by the cells into formazan, a colored product soluble in the cellular medium. The percentage of cell viability was analyzed through an absorbance reading at 492 nm. The concentrations of ligands were chosen based on the results of binding assays. Specifically, lower, similar, and higher concentrations than the Ki value were used.
Experiments were performed in triplicate.

The next data set deals with N13 cell line. The experiment in a line: Griess assay, nitrite production (antioxidant effect). Type of data set: cell-based. The following applies: compound 2 4500 nM, ZM241385 10 nM. An excerpt:
In addition, since oxidative stress has received extensive attention as one important entry point in the pathogenesis of neurodegenerative diseases, the potential antioxidant profile of compounds 1 and 2 was investigated. Oxidative stress and neuroinflammation play synergistic roles in the promotion of neurodegenerative disease progression. During a CNS insult, there is an activation of microglial cells, which stimulate immune responses to instigate tissue repair. If the triggering cause of the immune response is eradicated, the immune response resolves, but if the initial stress persists, it will lead to an overproduction of neurotoxic factors such as chemokines and proinflammatory cytokines such as Tumor Necrosis Factor-α (TNF-α) and Interleukin-1β (IL-1β). This pathological state will lead to an overproduction of ROS and a state of oxidative stress. High levels of ROS inactivate or damage proteins, leading to cellular degeneration and death. Furthermore, ROS can activate proinflammatory pathways, further promoting a harmful environment for vulnerable neurons. In light of this, the potential antioxidant capacity of compounds was studied. […] The combination of anti-inflammatory and antioxidant activities makes compound 2 particularly appealing in counteracting two of the factors involved in the pathogenesis of neurodegenerative pathologies.
The N13 cell line was introduced into a 96-well UV-VIS transparent plate at a population of 1 × 10^4 cells per well in 98 μL of DMEM and incubated overnight. […] After 24 h of incubation, the media from each well was transferred into another 96-well plate, and then 50 µL of the sulphanilamide solution was placed into the wells. After 10 min of incubation at room temperature (rt), 50 µL of the NED solution was dispensed to all wells, and the plate was incubated at rt for an additional 5–10 min. After half an hour, absorbance was measured in the microplate reader GENiosPro using a 520–550 nm filter. All measurements were reproduced in 3–5 replicates. The nitric oxide formation was investigated by measuring nitrite (NO^2−), which is one of two primary breakdown products of NO. A nitrite standard reference curve was used for quantitative evaluation of the concentration of NO^2− in samples.
On the technique in general: The Griess reaction detects nitrite, a stable product of nitric oxide.

As for `N#CCNc1nc(Cl)nc2c1ncn2C1CCCC1` [compound 3, 2-((2-Chloro-9-cyclopentyl-9H-purin-6-yl)amino)acetonitrile], the Ki on human recombinant A2AAR is 7 ± 0.01 nM. Moreover, at human recombinant A1AR, the Ki was 118 ± 10 nM. Moreover, in the data set on CK1δ, the “% Residual Activity at 40 μM ± sd” value is reported as 86 ± 1.6%; the “CK1δ inhibition, in words” value is “inactive as a CK1δ inhibitor”; the IC50 (usually the point on the concentration scale where inhibition reaches its midpoint) was greater than 40000 nM. For the same compound, the “cell vitality increase up to” value in the data set with N13 microglial cells [1] (400 µM, after CK cocktail (Figure 3)) amounted to 93 ± 1.1%. Further, the “counteraction of CK cocktail effect (cell viability)” value with N13 microglial cells [1] (35, 65 and 400 µM, after CK cocktail) is listed as “able to counteract the effect of the CK cocktail but to a lesser extent than compound 2”. The Ki at human recombinant A3AR was 140 ± 35 nM.

Consider `Nc1nc(Cl)nc2c1nc(-c1ccco1)n2C1CCCC1` [compound 4, 2-chloro-9-cyclopentyl-8-(furan-2-yl)-9H-purin-6-amine], for which, at human recombinant A2AAR, the Ki is 3480 ± 312 nM and the “A2AAR antagonism, in words” value is “inactive as an A2AAR antagonist”. Moreover, in the data set with N13 microglial cells [2] (N13, 25 µM 60 min before CK cocktail 48 h, CK cocktail alone 78% 1.3 vs. control (Figure 7)), the viability (as a rule, a read-out of living cells in per cent, often relative to untreated cells) at 25 µM was determined as 108%. For the same compound, in the data set on N13 microglial cells [2] (N13, 50 µM 60 min before CK cocktail 48 h, CK cocktail alone 78% 1.3 vs. control), the viability at 50 µM turned out to be 102%. Besides, the viability at 500 µM in the data set on N13 microglial cells [2] (N13, 500 µM 60 min before CK cocktail 48 h, CK cocktail alone 78% 1.3 vs. control) came out at 90%. Moreover, the Ki on human recombinant A1AR was 8660 ± 1520 nM. In addition, the “% Residual Activity at 10 μM ± sd” value with CK1δ (10 μM) is 13 ± 24%. In the data set with CK1δ, the “% Residual Activity at 40 μM ± sd” value is reported as 25 ± 9.6% and the IC50 is 360 ± 100 nM. In addition, the Ki at human recombinant A3AR was 5960 ± 1020 nM.

On to `Nc1nc(NCCc2ccc(O)cc2)nc2nc(-c3ccco3)nn12` [ZM241385, reference compound], for which the “cell viability vs. control” value with N13 microglial cells [3] (0.01 µM, absence of CK cocktail (reference used at 60 min)) was 155% ± 1.9. In addition, the “compensation of oxidative stress caused by the CK cocktail” value with N13 cell line is given as “successfully compensated”.

On to `Nc1nccc(-c2c(-c3ccc(F)cc3)ncn2C2CCCCC2)n1` [PF-670462, reference compound], for which the cell vitality is reported as 96% ± 3.1 in the data set on N13 microglial cells [2] (0.05 µM 60 min before CK cocktail 48 h) and 78% ± 3.5 with N13 microglial cells [2] (0.1 µM 60 min before CK cocktail 48 h). Moreover, the cell viability result is “no significant decrease in cell viability” with N13 microglial cells [2] (1 µM 60 min before CK cocktail 48 h), “does not affect cell viability” in the data set on N13 microglial cells [3] (0.05 µM), 75% ± 1.4 in the data set on N13 microglial cells [3] (0.1 µM) and 60% ± 2.9 with N13 microglial cells [3] (1 µM).
